Reference: patent US20200347033A1, “MODULATORS OF THE INTEGRATED STRESS PATHWAY” (Calico Life Sciences LLC, priority 2017, published 2020)

system: HEK293T cells carrying the ATF4 luciferase reporter; assay: ATF4-Luc assay (in vitro model of vanishing white matter disease); format: cell-based, human; conditions: Homo sapiens, HEK-293T; HEK293T cells with ATF4 5'-UTR firefly luciferase reporter; 1 μg/mL tunicamycin; 7 hours; One Glo luminescence
Method: In order to test exemplary compounds of the invention in a cellular context, a stable VWMD cell line was first constructed. The ATF4 reporter was prepared by fusing the human full-length ATF4 5′-UTR (NCBI Accession No. BC022088.2) in front of the firefly luciferase (FLuc) coding sequence lacking the initiator methionine as described in Sidrauski et al (eLife 2013). The construct was used to produce recombinant retroviruses using standard methods and the resulting viral supernatant was used to transduce HEK293T cells, which were then subsequently selected with puromycin to generate a stable cell line.
HEK293T cells carrying the ATF4 luciferase reporter were plated on polylysine coated 384-well plates (Greiner Bio-one) at 30,000 cells per well. Cells were treated the next day with 1 μg/mL tunicamycin and 200 nM of a compound of Formula (I) for 7 hours. Luminescence was measured using One Glo (Promega) as specified by the manufacturer. Cells were maintained in DMEM with L-glutamine supplemented with 10% heat-inactivated FBS (Gibco) and Antibiotic-Antimycotic solution (Gibco).
Table 2 below summarizes the EC50 data obtained using the ATF4-Luc assay for exemplary compounds of the invention.

Row | SMILES | EC50
1 | O=C(COc1ccc2c(c1)OC(F)(F)O2)N[C@H]1CC[C@H](N2CCN(c3ccc(C(F)F)cn3)C2=O)CC1 [Compound 128, 2-[(2,2-difluoro-2H-1,3-benzodioxol-5-yl)oxy]-N-[(1r,4r)-4-{3-[5-(difluoromethyl)pyridin-2-yl]-2-oxoimidazolidin-1-yl}cyclohexyl]acetamide] | 50 to 250 nM
2 | O=C(N[C@H]1CC[C@H](N2CCN(c3ccc(C(F)F)cn3)C2=O)CC1)OCc1ccccc1 [Compound 129, benzyl [(1r,4r)-4-{3-[5-(difluoromethyl)pyridin-2-yl]-2-oxoimidazolidin-1-yl}cyclohexyl]carbamate] | > 2000 nM
3 | O=C(COc1ccc(Cl)c(F)c1)N[C@H]1CC[C@H](N2CCN(c3ccccn3)C2=O)CC1 [Compound 130, 2-(4-chloro-3-fluorophenoxy)-N-{(1r,4r)-4-[2-oxo-3-(pyridin-2-yl)imidazolidin-1-yl]cyclohexyl}acetamide] | < 50 nM
4 | Cc1csc(N2CCN([C@H]3CC[C@H](NC(=O)COc4ccc(Cl)c(F)c4)CC3)C2=O)n1 [Compound 131, 2-(4-chloro-3-fluorophenoxy)-N-{(1r,4r)-4-[3-(4-methyl-1,3-thiazol-2-yl)-2-oxoimidazolidin-1-yl]cyclohexyl}acetamide] | 250 to 1000 nM
5 | O=C(COc1ccc(Cl)c(F)c1)N[C@H]1CC[C@H](N2CCN(c3ccc(C(F)F)cn3)C2=O)CC1 [Compound 133, 2-(4-chloro-3-fluorophenoxy)-N-[(1r,4r)-4-{3-[5-(difluoromethyl)pyridin-2-yl]-2-oxoimidazolidin-1-yl}cyclohexyl]acetamide] | < 50 nM
6 | O=C(COc1ccc(Cl)c(F)c1)N[C@H]1CC[C@H](N2CCN(c3ccc4c(c3)OC(F)(F)O4)C2=O)CC1 [Compound 134, 2-(4-chloro-3-fluorophenoxy)-N-{(1r,4r)-4-[3-(2,2-difluoro-2H-1,3-benzodioxol-5-yl)-2-oxoimidazolidin-1-yl]cyclohexyl}acetamide] | < 50 nM
7 | O=C(COc1ccc(Cl)c(F)c1)N[C@H]1CC[C@H](N2CCN(c3ccc(Cl)cn3)C2=O)CC1 [Compound 135, 2-(4-chloro-3-fluorophenoxy)-N-{(1r,4r)-4-[3-(5-chloropyridin-2-yl)-2-oxoimidazolidin-1-yl]cyclohexyl}acetamide] | < 50 nM
8 | O=C(COc1ccc(Cl)c(F)c1)N[C@H]1CC[C@H](N2CCN(c3ccc(OC(F)(F)F)nc3)C2=O)CC1 [Compound 136, 2-(4-chloro-3-fluorophenoxy)-N-[(1r,4r)-4-{2-oxo-3-[6-(trifluoromethoxy)pyridin-3-yl]imidazolidin-1-yl}cyclohexyl]acetamide] | > 2000 nM
9 | O=C(COc1ccc(Cl)c(F)c1)NC12CC(N3CNc4cc(F)c(F)cc4C3=O)(C1)C2 [Compound 137, 2-(4-chloro-3-fluorophenoxy)-N-[3-(6,7-difluoro-4-oxo-1,4-dihydroquinazolin-3(2H)-yl)bicyclo[1.1.1]pentan-1-yl]acetamide] | 250 to 1000 nM
10 | O=C(COc1ccc(Cl)c(F)c1)NC12CC(n3c(=O)c4ccc(Cl)cc4n(CCO)c3=O)(C1)C2 [Compound 138, 2-(4-chloro-3-fluorophenoxy)-N-{3-[7-chloro-1-(2-hydroxyethyl)-2,4-dioxo-1,4-dihydroquinazolin-3(2H)-yl]bicyclo[1.1.1]pentan-1-yl}acetamide] | 50 to 250 nM
11 | O=c1[nH]c2cc(Cl)ccc2c(=O)n1C12CC(NCCOc3ccc(Cl)c(F)c3)(C1)C2 [Compound 139, 7-chloro-3-(3-{[2-(4-chloro-3-fluorophenoxy)ethyl]amino}bicyclo[1.1.1]pentan-1-yl)quinazoline-2,4(1H,3H)-dione] | > 2000 nM
12 | O=C(COc1ccc(Cl)c(F)c1)NC12CC(n3c(=O)[nH]c4cc(Cl)ccc4c3=O)(C1)C2 [Compound 140, N-[3-(7-chloro-2,4-dioxo-1,4-dihydroquinazolin-3(2H)-yl)bicyclo[1.1.1]pentan-1-yl]-2-(4-chloro-3-fluorophenoxy)acetamide] | 250 to 1000 nM
13 | O=C(COc1ccc(Cl)c(F)c1)N[C@H]1CC[C@H](N2CCN(c3ccc(OC(F)(F)F)cn3)C2=O)CC1 [Compound 141, 2-(4-chloro-3-fluorophenoxy)-N-[(1r,4r)-4-{2-oxo-3-[5-(trifluoromethoxy)pyridin-2-yl]imidazolidin-1-yl}cyclohexyl]acetamide] | 50 to 250 nM
14 | O=C(COc1ccc(Cl)c(F)c1)N[C@H]1CC[C@H](N2CCN(c3ccc(C(F)F)nc3)C2=O)CC1 [Compound 142, 2-(4-chloro-3-fluorophenoxy)-N-[(1r,4r)-4-{3-[6-(difluoromethyl)pyridin-3-yl]-2-oxoimidazolidin-1-yl}cyclohexyl]acetamide] | < 50 nM
15 | O=C(COc1ccc(Cl)c(F)c1)N[C@H]1CC[C@H](N2CCN(c3ccc(C(F)(F)F)nc3)C2=O)CC1 [Compound 143, 2-(4-chloro-3-fluorophenoxy)-N-[(1r,4r)-4-{2-oxo-3-[6-(trifluoromethyl)pyridin-3-yl]imidazolidin-1-yl}cyclohexyl]acetamide] | < 50 nM
16 | O=C(COc1ccc(Cl)c(F)c1)N[C@H]1CC[C@H](N2CCN(c3ccc(Cl)cc3)C2=O)CC1 [Compound 144, 2-(4-chloro-3-fluorophenoxy)-N-{(1r,4r)-4-[3-(4-chlorophenyl)-2-oxoimidazolidin-1-yl]cyclohexyl}acetamide] | < 50 nM
17 | O=C(COc1ccc(Cl)c(F)c1)NC12CC(N3CCN(c4ccc(Cl)cn4)C3=O)(C1)C2 [Compound 145, 2-(4-chloro-3-fluorophenoxy)-N-{3-[3-(5-chloropyridin-2-yl)-2-oxoimidazolidin-1-yl]bicyclo[1.1.1]pentan-1-yl}acetamide] | < 50 nM
18 | O=C(COc1ccc(Cl)c(F)c1)NC12CCC(N3CCN(c4ccc(Cl)c(F)c4)C3=O)(CC1)CC2O (stereo not shown) [Compound 146, 2-(4-chloro-3-fluorophenoxy)-N-{4-[3-(4-chloro-3-fluorophenyl)-2-oxoimidazolidin-1-yl]-2-hydroxybicyclo[2.2.2]octan-1-yl}acetamide] | < 50 nM
19 | O=C(COc1ccc(Cl)c(F)c1)NC12CC(N3CCN(c4ccc(C(F)F)cn4)C3=O)(C1)C2 [Compound 147, 2-(4-chloro-3-fluorophenoxy)-N-(3-{3-[5-(difluoromethyl)pyridin-2-yl]-2-oxoimidazolidin-1-yl}bicyclo[1.1.1]pentan-1-yl)acetamide] | < 50 nM
20 | O=C(COc1ccc(Cl)c(F)c1)NC12CC(N3C(=O)OC(c4ccc(F)cc4)C3=O)(C1)C2 (stereo not shown) [Compound 158, 2-(4-chloro-3-fluorophenoxy)-N-{3-[5-(4-fluorophenyl)-2,4-dioxo-,3-oxazolidin-3-yl]bicyclo[1.1.1]pentan-1-yl}acetamide] | 1000 to 2000 nM
21 | O=C(COc1ccc(Cl)c(F)c1)NC12CC(N3CC(c4ccc(Cl)c(F)c4)CC3=O)(C1)C2 (stereo not shown) [Compound 159, 2-(4-chloro-3-fluorophenoxy)-N-{3-[4-(4-chloro-3-fluorophenyl)-2-oxopyrrolidin-1-yl]bicyclo[1.1.1]pentan-1-yl}acetamide] | < 50 nM
22 | O=C(COc1ccc(Cl)c(F)c1)NC12CC(n3ccn(-c4ccc(Cl)cc4)c3=O)(C1)C2 [Compound 160, 2-(4-chloro-3-fluorophenoxy)-N-{3-[3-(4-chlorophenyl)-2-oxo-2,3-dihydro-1H-imidazol-1-yl]bicyclo[1.1.1]pentan-1-yl}acetamide] | < 50 nM
23 | O=C(COc1ccc(Cl)c(F)c1)NC12CCC(N3CC(c4ccc(Cl)cc4)OC3=O)(CC1)CC2O (stereo not shown) [Compound 162, 2-(4-chloro-3-fluorophenoxy)-N-{4-[5-(4-chlorophenyl)-2-oxo-1,3-oxazolidin-3-yl]-2-hydroxybicyclo[2.2.2]octan-1-yl}acetamide] | 50 to 250 nM
24 | O=C(COc1ccc(Cl)c(F)c1)NC12CCC(N3CC(c4ccc(Cl)c(F)c4)CC3=O)(CC1)C[C@@H]2O (stereo partly drawn) [Compound 163, 2-(4-chloro-3-fluorophenoxy)-N-{(2S)-4-[4-(4-chloro-3-fluorophenyl)-2-oxopyrrolidin-1-yl]-2-hydroxybicyclo[2.2.2]octan-1-yl}acetamide] | < 50 nM
25 | CC1(c2ccc(Cl)cc2)CN=C(C23CC(NC(=O)COc4ccc(Cl)c(F)c4)(C2)C3)O1 (stereo not shown) [Compound 164, 2-(4-chloro-3-fluorophenoxy)-N-{3-[5-(4-chlorophenyl)-5-methyl-4,5-dihydro-1,3-oxazol-2-yl]bicyclo[1.1.1]pentan-1-yl}acetamide] | 250 to 1000 nM
26 | O=C(COc1ccc(Cl)c(F)c1)NC12CC(N3CC(c4ccc(Cl)c(F)c4)=CC3=O)(C1)C2 [Compound 165, 2-(4-chloro-3-fluorophenoxy)-N-{3-[4-(4-chloro-3-fluorophenyl)-2-oxo-2,5-dihydro-1H-pyrrol-1-yl]bicyclo[1.1.1]pentan-1-yl}acetamide] | < 50 nM
27 | O=C(NC12CC(N3CC(c4ccc(Cl)c(F)c4)OC3=O)(C1)C2)c1cnc(C(F)F)cn1 (stereo not shown) [Compound 166, N-{3-[5-(4-chloro-3-fluorophenyl)-2-oxo-1,3-oxazolidin-3-yl]bicyclo[1.1.1]pentan-1-yl}-5-(difluoromethyl)pyrazine-2-carboxamide] | > 2000 nM
28 | O=C(NC12CC(N3CC(c4ccc(Cl)c(F)c4)OC3=O)(C1)C2)c1cc(C(F)F)no1 (stereo not shown) [Compound 167, N-{3-[5-(4-chloro-3-fluorophenyl)-2-oxo-1,3-oxazolidin-3-yl]bicyclo[1.1.1]pentan-1-yl}-3-(difluoromethyl)-1,2-oxazole-5-carboxamide] | > 2000 nM
